Source: US10149887B2, “Peptides and peptidomimetics in combination with t cell activating and/or checkpoint inhibiting agents for cancer treatment” (CanBas Co., Ltd., priority 2015, dated 2018)
Square brackets hold non-standard residues; d marks the D form. Ends that are not written are not given here. Peptide text beside a SMILES is read from it. dPhe(4-NO2) = N[C@H](Cc1ccc([N+](=O)[O-])cc1)C(=O)O; dPhe(F5) = N[C@H](Cc1c(F)c(F)c(F)c(F)c1F)C(=O)O; dBpa = N[C@H](Cc1ccc(C(=O)c2ccccc2)cc1)C(=O)O; dCha = N[C@H](CC1CCCCC1)C(=O)O; Aun = NCCCCCCCCCCC(=O)O

What was measured:
Jurkat cells [1] = test: G2 checkpoint abrogation, flow cytometry of bleomycin treated Jurkat cells; type: cell-based, human; details: for G2 abrogating dose: dose with 40 μg/ml bleomycine giving detectable G2 checkpoint abrogation, 24 hours; for G2 checkpoint abrogating activity (in words): Jurkat cells with bleomycin 40 μg/ml
Method: Flow cytometry analysis of G2 checkpoint abrogation was performed using human leukemia derived Jurkat cell line. In brief, cultured cells were treated with various doses of peptide/peptidomimetic and 40 μg/ml bleomycine for 24 hr. The DNA of the cells was stained with propidium iodide and analyzed by flow cytometry.
The G2 checkpoint abrogating activity of various arginine rich sequences at different doses on cells treated with bleomycine was studied. Briefly, peptides were added to culture medium of Jurkat cells with bleomycin (40 μg/ml) at 0.2 μg/ml, 0.39 μg/ml, 0.78 μg/ml, 1.56 μg/ml, 3.125 μg/ml, 6.25 μg/ml, 12.5 μg/ml, 25 μg/ml and 50 μg/ml. Cells were subsequently harvested after 24 hours, stained with Krishan's solution, and analyzed with flow cytometry as previously described.

Jurkat cells [2] = test: Side effect of peptide used alone: Jurkat cell cycle disturbance (flow cytometry); type: cell-based; details: dose that produced Jurkat cell cycle disturbance, peptide alone
Method: Cell-cycle analysis The cell cycle status of the cells treated with bleomycin or adriamcin were analyzed by flow cytometry as described by Kawabe (1997) Nature 385:454-458. In brief, two million cells were re-suspended and incubated in 200 μl Krishan's solution (0.1% Sodium citrate, 50 μg/ml PI, 20 μg/ml RNase A and 0.5% NP-40) for 1 hr at 4° C. and analyzed by a flow cytometry, FACScan™ (Beckton Dickinson, Mountain View, Calif.) with the program CELLQuest™ (Beckton Dickinson).
(§1) The “Appearance of side effect when used alone” indicates the peptide/peptidomimetic dose that produced Jurkat cell cycle disturbance, i.e., the appearance of significant amounts of SubG1 cells (dead cells) or cells in which the DNA content of each varies more than usual. […] The “G2 abrogating dose” indicates the peptide/peptidomimetic dose with 40 μg/ml bleomycine that produced detectable G2 checkpoint abrogation activity following treatment for 24 hours. The “Appearance of side effect when used with colchicine” indicates the peptide/peptidomimetic dose with 5 μg/ml colchicine that produced Jurkat cell cycle disturbance following treatment for 24 hours.

Jurkat cells [3] = test: M phase checkpoint abrogation / non specific toxicity, colchicine treated Jurkat cells; type: cell-based; details: dose with 5 μg/ml colchicine that produced Jurkat cell cycle disturbance, 24 hours
Method: Flow cytometry analysis of M phase checkpoint abrogation by the compounds was performed using human T cell leukemia Jurkat cell line treated with colchicine (5 μg/ml or 0.5 μg/ml) and various doses of peptide/peptidomimetics for 24 hr (FIG. 12). The DNA of the cells was stained and analyzed by flow cytometry as described above.
as §1
A comparison between G2 checkpoint abrogating activity and non specific toxicity (M checkpoint abrogation) by CB501 was performed. In brief, Jurkat cells were treated with 40 μg/ml bleomycin or 0.5 μg/ml colchicine for G2 checkpoint abrogating activity and non specific toxicity, respectively. The DNA amount in each of the treated cells was analyzed by flow cytometry, as previously described.

[4] = Human serum treatment analysis (residual G2 checkpoint abrogating activity); type: in vitro ADME; details: 37 degrees
Method: Serum analysis was performed to determine the stability of peptides in mouse and human serum. Briefly, peptides (10 mM or 2.5 mM) were incubated with freshly prepared human serum at 37 degrees for 1 hr. […] Jurkat cells were treated with the serum with or without peptides and bleomycin (40 μg/ml) and incubated for 24 hr. The population of G2 phase cells was determined by flow cytometry as previously described. The residual G2 checkpoint abrogating activity of serum treated peptides were determined by comparing the % G2 cells of the treated serum and the standard curve produced with medium treated peptides, bleomycin and Jurkat cells (Table 5A).

[5] = target: T1, recombinant human full length Chk2 (Homo sapiens, UniProt O96017); test: In vitro kinase inhibition (CycLex), phosphorylation of serine 216 on GST-Cdc25C; type: biochemical
T1 construct: E. Coli derived recombinant human full length Chk2 fused with GST; host or cells: E. coli
Method: (§2) In vitro kinase inhibition analysis was performed by CycLex, Co. Ltd., Nagano, Japan. Briefly, baculovirus derived recombinant human full length Chk1 with histidine tag or E. Coli derived recombinant human full length Chk2 fused with GST were used as kinases. E. Coli derived recombinant GST-Cdc25C (amino acis 167-267) was used as a substrate. Reaction conditions were 20 mM Hepes-KOH (pH7.5), 1 mM DTT, 80 μg/ml BSA, 10 mM MgCl2 and […] at 30 degree for 60 min. The phosphorylation of serine 216 on GST-Cdc25C was detected by anti-Cdc25C-phosphorylated 5216 antibody with enzyme linked immune assay.

[6] = target: T2, recombinant human full length Chk1 (Homo sapiens, UniProt O14757); test: as above; type: biochemical
T2 construct: baculovirus derived recombinant human full length Chk1 with histidine tag; histidine tag; host or cells: baculovirus system (insect cells) for Chk1; E. coli for the GST-Cdc25C substrate
T2 sequence (O14757 1-476): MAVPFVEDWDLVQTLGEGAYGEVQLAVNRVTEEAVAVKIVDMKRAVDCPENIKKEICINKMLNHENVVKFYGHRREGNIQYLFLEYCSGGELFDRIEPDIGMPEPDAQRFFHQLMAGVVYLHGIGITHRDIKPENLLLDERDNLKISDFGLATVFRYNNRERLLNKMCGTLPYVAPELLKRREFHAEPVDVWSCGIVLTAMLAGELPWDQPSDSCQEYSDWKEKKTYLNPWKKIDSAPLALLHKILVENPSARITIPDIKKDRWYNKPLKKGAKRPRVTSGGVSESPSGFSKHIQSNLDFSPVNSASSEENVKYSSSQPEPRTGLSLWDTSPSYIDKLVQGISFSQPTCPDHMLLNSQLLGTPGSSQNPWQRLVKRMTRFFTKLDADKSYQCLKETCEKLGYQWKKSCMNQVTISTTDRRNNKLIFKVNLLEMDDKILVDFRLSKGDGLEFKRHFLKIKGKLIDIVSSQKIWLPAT
Method: as §2

T1 sequence (O96017 whole entry, the tested form may be a part): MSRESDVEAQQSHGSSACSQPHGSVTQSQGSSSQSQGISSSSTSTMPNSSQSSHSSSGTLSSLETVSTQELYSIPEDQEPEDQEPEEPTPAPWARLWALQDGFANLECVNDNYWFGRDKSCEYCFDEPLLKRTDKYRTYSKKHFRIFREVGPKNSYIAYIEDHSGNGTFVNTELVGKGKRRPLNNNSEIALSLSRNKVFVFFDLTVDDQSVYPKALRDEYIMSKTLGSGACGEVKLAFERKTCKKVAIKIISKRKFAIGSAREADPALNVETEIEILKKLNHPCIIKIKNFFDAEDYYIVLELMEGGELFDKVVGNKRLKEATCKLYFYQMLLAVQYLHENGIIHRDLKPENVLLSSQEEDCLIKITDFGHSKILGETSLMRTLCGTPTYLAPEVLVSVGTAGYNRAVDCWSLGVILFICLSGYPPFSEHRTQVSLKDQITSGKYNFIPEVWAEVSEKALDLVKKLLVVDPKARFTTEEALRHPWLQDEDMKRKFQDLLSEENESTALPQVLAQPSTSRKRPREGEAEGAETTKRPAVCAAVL

## N=C(N)NCCC[C@H](NC(=O)CNC(=O)[C@@H](N)Cc1ccc(O)cc1)C(=O)N[C@@H](CCCCN)C(=O)N[C@@H](CCCCN)C(=O)N[C@@H](CCCNC(=N)N)C(=O)N[C@@H](CCCNC(=N)N)C(=O)N[C@@H](CCC(N)=O)C(=O)N[C@@H](CCCNC(=N)N)C(=O)N[C@@H](CCCNC(=N)N)C(=O)N[C@@H](CCCNC(=N)N)C(=O)N[C@@H](CC1CCCCC1)C(=O)N[C@@H](Cc1c(F)c(F)c(F)c(F)c1F)C(=O)N[C@@H](CCCNC(=N)N)C(=O)N[C@@H](CO)C(=O)N1CCC[C@H]1C(=O)N[C@@H](CO)C(=O)N[C@@H](Cc1ccc(O)cc1)C(=O)N[C@@H](Cc1ccc(O)cc1)C(=O)O [CBP413, (1-Tyr)(1-Gly)(1-Arg)(1-Lys)(1-Lys)(1-Arg)(1-Arg)(1-Gln)(1-Arg)(1-Arg)(1-Arg)(1-Cha)(1-Phe-2,3,4,5,6-F)(1-Arg)(1-Ser)(1-Pro)(1-Ser)(1-Tyr)(1-Tyr)]
Jurkat cells [1]
  G2 abrogating dose: ≥1.56 µM
Jurkat cells [2]
  Appearance of side effect when used alone: >25 µM
Jurkat cells [3]
  Appearance of side effect when used with Colchicine: >25 µM
[4]
  Residual activity of peptide after 1 hr human serum treatment: <0.4% of original

## N=C(N)NCCC[C@@H](NC(=O)[C@@H](CCCCN)NC(=O)[C@@H](CCCCN)NC(=O)[C@@H](CCCNC(=N)N)NC(=O)[C@@H](CCCNC(=N)N)NC(=O)[C@@H](CCC(N)=O)NC(=O)[C@@H](CCCNC(=N)N)NC(=O)[C@@H](CCCNC(=N)N)NC(=O)[C@@H](CCCNC(=N)N)NC(=O)[C@@H](CC1CCCCC1)NC(=O)[C@@H](Cc1c(F)c(F)c(F)c(F)c1F)NC(=O)CCCCCCCCCCN)C(=O)NCC(=O)N[C@H](Cc1ccc(O)cc1)C(=O)O [CBP463, (1-aminoundecanoic acid)(d-Phe-2,3,4,5,6-F)(d-Cha)(d-Arg)(d-Arg)(d-Arg)(d-Gln)(d-Arg)(d-Arg)(d-Lys)(d-Lys)(d-Arg)(1-Gly)(d-Tyr)] (H-[Aun][dPhe(F5)][dCha][dR][dR][dR][dQ][dR][dR][dK][dK][dR]G[dY]-OH; N-terminus and C-terminus assumed)
Jurkat cells [2]
  Appearance of side effect when used alone: >6.25 µM
Jurkat cells [3]
  Appearance of side effect when used with Colchicine: >6.25 µM

## N=C(N)NCCC[C@@H](NC(=O)[C@@H](CCCNC(=N)N)NC(=O)[C@@H](CCC(N)=O)NC(=O)[C@@H](CCCNC(=N)N)NC(=O)[C@@H](CCCNC(=N)N)NC(=O)[C@@H](CCCNC(=N)N)NC(=O)[C@@H](CC1CCCCC1)NC(=O)[C@@H](Cc1c(F)c(F)c(F)c(F)c1F)NC(=O)[C@@H](CO)NC(=O)[C@@H](Cc1c[nH]c2ccccc12)NC(=O)[C@@H](CO)NC(=O)[C@@H](Cc1ccc(C(=O)c2ccccc2)cc1)NC(=O)[C@H](N)Cc1ccc(O)cc1)C(=O)O [CBP500, (d-Tyr)(d-Bpa)(d-Ser)(d-Trp)(d-Ser)(d-Phe-2,3,4,5,6-F)(d-Cha)(d-Arg)(d-Arg)(d-Arg)(d-Gln)(d-Arg)(d-Arg)] (H-[dY][dBpa][dS][dW][dS][dPhe(F5)][dCha][dR][dR][dR][dQ][dR][dR]-OH; N-terminus and C-terminus assumed)
Jurkat cells [1]
  G2 abrogating dose: ≥0.39 µM
Jurkat cells [2]
  Appearance of side effect when used alone: >50 µM
Jurkat cells [3]
  Appearance of side effect when used with Colchicine: >12.5 µM
[5]
  IC50: 8 µM
[6]
  IC50: 5.6 µM

## N=C(N)NCCC[C@@H](NC(=O)[C@@H](CCCNC(=N)N)NC(=O)[C@@H](CCC(N)=O)NC(=O)[C@@H](CCCNC(=N)N)NC(=O)[C@@H](CCCNC(=N)N)NC(=O)[C@@H](CCCNC(=N)N)NC(=O)[C@@H](CC1CCCCC1)NC(=O)[C@@H](Cc1c(F)c(F)c(F)c(F)c1F)NC(=O)[C@@H](CO)NC(=O)[C@@H](Cc1c[nH]c2ccccc12)NC(=O)[C@@H](CO)NC(=O)[C@@H](CC(=O)O)NC(=O)[C@H](N)Cc1ccc(C(=O)c2ccccc2)cc1)C(=O)O [CBP505, (d-Bpa)(d-Asp)(d-Ser)(d-Trp)(d-Ser)(d-Phe-2,3,4,5,6-F)(d-Cha)(d-Arg)(d-Arg)(d-Arg)(d-Gln)(d-Arg)(d-Arg)] (H-[dBpa][dD][dS][dW][dS][dPhe(F5)][dCha][dR][dR][dR][dQ][dR][dR]-OH; N-terminus and C-terminus assumed)
[5]
  IC50: > 100 µM
[6]
  IC50: 63.4 µM

## N=C(N)NCCC[C@@H](NC(=O)[C@@H](CCCNC(=N)N)NC(=O)[C@@H](CCC(N)=O)NC(=O)[C@@H](CCCNC(=N)N)NC(=O)[C@@H](CCCNC(=N)N)NC(=O)[C@@H](CCCNC(=N)N)NC(=O)[C@@H](CC1CCCCC1)NC(=O)[C@@H](Cc1ccc([N+](=O)[O-])cc1)NC(=O)[C@@H](CO)NC(=O)[C@@H](Cc1c[nH]c2ccccc12)NC(=O)[C@@H](CO)NC(=O)[C@H](N)Cc1ccc(C(=O)c2ccccc2)cc1)C(=O)O [CBP603, (d-Bpa)(d-Ser)(d-Trp)(d-Ser)(d-Phe4No2)(d-Cha)(d-Arg)(d-Arg)(d-Arg)(d-Gln)(d-Arg)(d-Arg)] (H-[dBpa][dS][dW][dS][dPhe(4-NO2)][dCha][dR][dR][dR][dQ][dR][dR]-OH; N-terminus and C-terminus assumed)
[4]
  Residual activity of peptide after 1 hr human serum treatment: >50% of original
[5]
  IC50: 18.1 µM
[6]
  IC50: 15.5 µM

## (d-Arg)(d-Arg)(d-Arg)(d-Arg)(d-Bpa)(d-Arg)(d-Trp)(d-Arg)(d-Phe-2,3,4,5,6-F)(d-Cha) ([dR][dR][dR][dR][dBpa][dR][dW][dR][dPhe(F5)][dCha]) [CBP702]
Jurkat cells [1]
  G2 checkpoint abrogating activity (in words): retain G2 checkpoint abrogating activity comparable to other peptides having significant G2 checkpoint abrogating activity

## (d-Arg)(d-Arg)(d-Arg)(d-Bpa)(d-Arg)(d-Arg)(d-Arg)(d-Phe-2,3,4,5,6-F)(d-Cha) ([dR][dR][dR][dBpa][dR][dR][dR][dPhe(F5)][dCha]) [CBP703]
Jurkat cells [1]
  G2 checkpoint abrogating activity (in words): retain G2 checkpoint abrogating activity comparable to other peptides having significant G2 checkpoint abrogating activity

## (d-Arg)(d-Arg)(d-Arg)(d-Bpa)(d-Arg)(d-Trp)(d-Arg)(d-Phe-2,3,4,5,6-F)(d-Cha) ([dR][dR][dR][dBpa][dR][dW][dR][dPhe(F5)][dCha]) [CBP701]
Jurkat cells [1]
  G2 checkpoint abrogating activity (in words): retain G2 checkpoint abrogating activity comparable to other peptides having significant G2 checkpoint abrogating activity

## (d-Arg)(d-Arg)(d-Bpa)(d-Arg)(d-Arg)(d-Arg)(d-Phe-2,3,4,5,6-F)(d-Cha) ([dR][dR][dBpa][dR][dR][dR][dPhe(F5)][dCha]) [CBP700]
Jurkat cells [1]
  G2 checkpoint abrogating activity (in words): retain G2 checkpoint abrogating activity comparable to other peptides having significant G2 checkpoint abrogating activity
